According to patent US20080167314A1, “Condensed Imidazole Compound And Use Thereof” (priority 2004, published 2008):

What was measured:
[1] = molecular target: T1, active form p38 MAP kinase (Homo sapiens, UniProt Q16539); assay: Measurement of the p38 MAP kinase inhibitory activity (32P uptake into Myelin Basic Protein); type: biochemical; details: 260 ng active form p38 MAP kinase, 1 μg Myelin Basic Protein, 2.5 μM ATP solution, 30° C. for 60 minutes
T1 construct: made in house; host or cells: Sf-21 insect cells, baculovirus BAC-HP38 co-infected with BAC-caMKK3
Experimental: (1) Cloning of Human p38 MAP Kinase Gene and Preparation of Recombinant Baculovirus
Cloning of human p38 MAP kinase gene was performed by a PCR method using a primer set P38-U:
(3) Preparation of Active Form p38 MAP Kinase
The Sf-21 cells were seeded on 100 ml Sf-900II SFM medium (GIBCOBRL) to 1×10^6 cells/mL and cultured at 27° C. for 24 hours. After each 0.2 mL of the virusstock BAC-HP38 of recombinant Baculovirus and BAC-caMKK3 were added, the culturing was further performed for 48 hours. After the cells were separated from the culturing solution by centrifugation (3000 rpm, 10 min), the cells were washed twice with PBS. After the cells were suspended in 10 ml Lysis buffer (25 mM HEPES (pH 7.5), 1% Triton X, 130 mM NaCl, 1 mM EDTA, 1 mM DTT, 25 mM β-glycerophosphate, […], 1 mM APMSF, 1 mM Sodium orthovanadate), the cells were lysed by treating twice with a homogenizer (POLYTRON) at 20000 rpm for 2 minutes. By using Anti-FLAG M2 Affinity Gel (Eastman Chemical), active form p38 MAP kinase was purified from the supernatant obtained by centrifugation (40000 rpm, 45 minutes).
(4) Measurement of the p38 MAP Kinase Inhibitory Activity
2.5 μL of a test compound dissolved in DMSO was added to 37.5 μL reaction solution (25 mM HEPES (pH 7.5), 10 mM Magnesium Acetate) containing 260 ng active form p38 MAP kinase and 1 μg Myelin Basic Protein, which was maintained at 30° C. for 5 minutes. The reaction was initiated by adding 10 μL ATP solution (2.5 μM ATP, 0.1 μCi [g-^32P]ATP). After the reaction was performed at 30° C. for 60 minutes, the reaction was stopped by adding 50 μL 20% TCA solution. After the reaction solution was allowed to stand at 0° C. for 20 minutes, an acid insoluble fraction was transferred to GF/C filter (Packard Japan) using Cell Harvester (Packard Japan) and washed with 250 mM H3PO4. After drying at 45° C. for 60 minutes, […] Microscint 0 (Packard Japan) was added and the radioactivity was measured with a TopCount (Packard Japan). The concentration (IC50 value) necessary for inhibiting uptake of ^32P into an acid insoluble fraction by 50% was calculated with PRISM 2.01 (Graphpad Software).

[2] = test system: TNF-α production in THP-1 cells; assay: Measurement of TNF-α production inhibitory activity in LPS-stimulated THP-1 cells (ELISA); type: cell-based; details: Homo sapiens, LPS 5 μg/mL, 4 hours, TNF-α in supernatant by ELISA
Experimental: Measurement of TNF-α Production Inhibitory Activity
After THP-1 cells which had been cultured in PRMI 1640 medium (manufactured by Life Technologies, Inc.) containing 1% non-activated bovine fetal serum (manufactured by Life Technologies, Inc., U.S.A.) and 10 mM HEPES (pH 7.5) was plated on a 96-well plate to 1×10^5 cells/well, 1 μL test compound dissolved in DMSO was added to there. After incubation at 37° C. for 1 hour in a CO2 incubator, LPS (Wako Pure Chemicals) was added to the final concentration 5 μg/mL. After cultured at 37° C. for 4 hours in a CO2 incubator, the supernatant was obtained by centrifugation. The concentration of TNF-α in the supernatant was measured with ELISA (R&D System, Quantikine Kit). The concentration (IC50 value) necessary for inhibiting TNF-α production by 50% was calculated by PRIMS 2.01 (Graphpad Software).

[3] = test system: MMP-13 production in human normal articular chondrocytes; assay: Measurement of MMP-13 production inhibitory activity in rhIL-1β-stimulated human normal articular chondrocytes (ELISA); type: cell-based; details: Chondrocyte, rhIL-1β 0.1 ng/mL, 24 hr, MMP-13 in culture supernatant by ELISA
Experimental: Measurement of MMP-13 Production Inhibitory Activity
Human normal articular chondrocytes (Camblex) were grown in a chondrocyte growth medium (CGM: Camblex), and the cells were suspended in a chondrocyte differentiation medium (CDM: Camblex) and plated on a 96 well plate at 2×10^4 cells/well (150 μL/well). After culturing for 3 days under 37° C., 5% CO2 conditions, the culture medium was exchanged to 0.1% BSA added α-modification of Eagle's (α-MEM: Gibco), and the cells were cultured for 4 hr. The compound was added thereto and, after culture for 1 hr, recombinant human IL-1β (rhIL-1β: R&D systems) was added at 0.1 ng/mL. After culture for 24 hr, the culture supernatant was recovered, and the concentration of MMP-13 in the culture supernatant was measured by the ELISA method (Amersham).

T1 sequence (Q16539 whole entry): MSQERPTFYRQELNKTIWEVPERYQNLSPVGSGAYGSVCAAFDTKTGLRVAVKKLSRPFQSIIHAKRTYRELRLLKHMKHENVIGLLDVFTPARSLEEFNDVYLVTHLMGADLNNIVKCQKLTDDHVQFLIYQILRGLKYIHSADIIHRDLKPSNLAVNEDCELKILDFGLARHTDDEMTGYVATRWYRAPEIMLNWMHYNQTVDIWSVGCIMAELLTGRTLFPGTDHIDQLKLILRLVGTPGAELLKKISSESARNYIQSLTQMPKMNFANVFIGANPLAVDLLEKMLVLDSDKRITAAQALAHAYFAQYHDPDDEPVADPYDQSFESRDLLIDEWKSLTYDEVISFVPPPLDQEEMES

Compound `CSCC(=O)Nc1cc(-c2c(-c3ccc(F)c(C)c3)nc3cccnn23)ccn1` [Example 42-6, N-{4-[2-(4-fluoro-3-methylphenyl)imidazo[1,2-b]pyridazin-3-yl]pyridin-2-yl}-2-(methylthio)acetamide] has an IC50 [1] of 0.0077 µM, an IC50 [2] of 0.0061 µM and an IC50 [3] of 0.011 µM.
`Cc1cc(-c2nc3cccnn3c2-c2ccnc(NC(=O)c3ccc4ncccc4c3)c2)ccc1F` [Example 42-36, N-{4-[2-(4-fluoro-3-methylphenyl)imidazo[1,2-b]pyridazin-3-yl]pyridin-2-yl}-6-quinolinecarboxamide] was tested, and the IC50 [1] was 0.0034 µM, the IC50 [2] was 0.0071 µM and the IC50 [3] was 0.011 µM.
With `Cc1cc(-c2nc3cccnn3c2-c2ccnc(NC(=O)c3ccc(F)cc3)c2)ccc1F` [Example 41-1, 4-fluoro-N-{4-[2-(4-fluoro-3-methylphenyl)imidazo[1,2-b]pyridazin-3-yl]pyridin-2-yl}benzamide] the IC50 [1] was 0.0081 µM, the IC50 [2] was 0.015 µM and the IC50 [3] was 0.035 µM.
